Test systems include DLD-1; DMS-114; DMS-273; HOP-18; KM-20L2; M19-MEL; SNB-78; XF498; RXF 631.
What all share (test): NCI tumour cell line growth inhibition, 48 h

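Dose response: 5 concentrations. Exposure: 48 h. Format: 96-well plates. Endpoint: linear interpolation; highest concentration if not reached. Abbreviation: GI50, concentration required for 50% inhibition of growth.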 Activity calls are given as the source filed them. Rule as the data show it: active = GI50 up to about 1.1 µM and inactive = higher.

The record followed here is ChEMBL document CHEMBL1201862, “PubChem BioAssay data set” (2004).

Turning to `COc1cc2c(c(OC)c1OC)-c1ccc(SC)c(=O)cc1C(CC(=O)Oc1cccc(C#N)c1)C2` (stereo unspecified), the GI50 in the experiment on DLD-1 is 0.388 µM (active); in the experiment on DMS-114 it was 0.251 µM (active); in the experiment with DMS-273, 0.2 µM (active); with HOP-18 it was > 100 µM (inactive); in the experiment on KM-20L2, 0.208 µM (active); in the experiment with M19-MEL, 0.303 µM (active). In addition, the GI50 with SNB-78 is 0.57 µM (active); with XF498, 0.316 µM (active).
As to `CCCCN(CCCC)/C(=N\C#N)NCc1ccccc1`, the GI50 was 23.8 µM (inactive) with DLD-1; 24.6 µM (inactive) with DMS-273; 46.6 µM (inactive) in the experiment with HOP-18; 22 µM (inactive) in the experiment on KM-20L2; 19 µM (inactive) in the experiment with M19-MEL; 26.5 µM (inactive) in the experiment on SNB-78.
Regarding `O=C1OC(O)C(Oc2c(Cl)cccc2Cl)=C1Cl` (stereo unspecified), the GI50 in the experiment on DLD-1 was 15.7 µM (inactive); in the experiment with DMS-273 it was 15.8 µM (inactive); in the experiment with HOP-18 it was 19.1 µM (inactive); in the experiment with KM-20L2, 17.8 µM (inactive); in the experiment on SNB-78, 36.1 µM (inactive).
In the case of `COc1cc(/C=C2\[C@H]3c4c(c(OC)c(C)c(OC)c4OC)C[C@@H](C(=O)N2Cc2ccccc2)N3C(=O)OCC(C)C)c(OC)c(C)c1OC`, the GI50 in the experiment on DLD-1 is > 100 µM (inactive); in the experiment on DMS-273, 47.1 µM (inactive); in the experiment on HOP-18, > 100 µM (inactive); with KM-20L2, > 69.8 µM (inactive); in the experiment on M19-MEL, > 100 µM (inactive); in the experiment with XF498, 40.6 µM (inactive).
As to `CC(=O)Nc1ccc(C(=O)NN2C(=O)C(Cl)C2c2ccc(O)cc2)cc1` (stereo unspecified), the GI50 with DLD-1 is > 100 µM (inactive); with DMS-273, > 100 µM (inactive); with KM-20L2, > 100 µM (inactive); in the experiment with M19-MEL it was > 100 µM (inactive); with SNB-78 it was > 100 µM (inactive); with XF498, 52.8 µM (inactive).
Take `C[n+]1c(Cl)cn2c3nc4ccccc4nc3c([O-])c(C#N)c21`: the GI50 is < 0.01 µM (active) in the experiment with DLD-1; > 100 µM (inactive) in the experiment on DMS-114; > 100 µM (inactive) with DMS-273; > 100 µM (inactive) in the experiment on HOP-18; < 0.01 µM (active) with M19-MEL; > 100 µM (inactive) in the experiment on SNB-78. In addition, the GI50 in the experiment with XF498 was > 100 µM (inactive).
With `CC1(C)CC(=O)C(CC2C(=O)c3ccccc3C2=O)C(=O)C1`, the GI50 in the experiment with DLD-1, with DMS-114, in the experiment on DMS-273, in the experiment on HOP-18, in the experiment on KM-20L2 and in the experiment on M19-MEL was > 100 µM (inactive) each time. Moreover, the GI50 with SNB-78 was > 100 µM (inactive).
In the case of `COc1ccc2c(c1)C1(C=N2)CCN(C(C)=O)CC1`, the GI50 is > 100 µM (inactive) with DLD-1; 60.5 µM (inactive) with DMS-114; > 100 µM (inactive) in the experiment with DMS-273; 41.5 µM (inactive) with HOP-18; > 100 µM (inactive) in the experiment with KM-20L2; > 100 µM (inactive) in the experiment on M19-MEL. Moreover, the GI50 in the experiment with RXF 631 and in the experiment with SNB-78 was > 100 µM (inactive) each time.
Regarding `Cc1cc(NS(=O)(=O)c2ccc(NC(=O)c3ccc(Cl)c4c(Nc5ccc(S(N)(=O)=O)cc5)c5ccccc5nc34)cc2)no1`, the GI50 in the experiment with DLD-1 is 21.7 µM (inactive); in the experiment with DMS-114, 20.2 µM (inactive); in the experiment with DMS-273, 21.5 µM (inactive); with HOP-18 it was 30.1 µM (inactive); in the experiment with KM-20L2, 24.5 µM (inactive); in the experiment with M19-MEL, 20 µM (inactive). Besides, the GI50 in the experiment on RXF 631 is 21.6 µM (inactive); with SNB-78 it was 36.8 µM (inactive); in the experiment with XF498, 19.5 µM (inactive).
For the compound `C=C1C(=O)OC2/C=C(\CO)C3OC3C3OC3(C)CC(OC(=O)/C(=C/C)COC(C)=O)C12` (stereo unspecified), the GI50 was 1.11 µM (active) in the experiment with DLD-1; 5.87 µM (inactive) with DMS-114; 3.12 µM (inactive) in the experiment on DMS-273; 9.79 µM (inactive) in the experiment with HOP-18; 6.17 µM (inactive) in the experiment with KM-20L2; 1.88 µM (inactive) with M19-MEL. Further, the GI50 in the experiment on SNB-78 was 1.73 µM (inactive); in the experiment on XF498 it was 1.8 µM (inactive).
Turning to `OCCCCOC(c1ccccc1)(c1ccccc1)c1ccccc1`, the GI50 in the experiment on DLD-1, in the experiment on DMS-114, in the experiment with DMS-273, with KM-20L2, in the experiment with SNB-78 and in the experiment with XF498 was > 100 µM (inactive) each time.
Regarding `O=C(CC1(O)C(=O)Nc2c(Cl)cc(Cl)cc21)c1ccccc1` (stereo unspecified), the GI50 in the experiment with DMS-114 is 39.7 µM (inactive); with DMS-273, 45.7 µM (inactive); in the experiment on KM-20L2 it was > 100 µM (inactive); in the experiment on M19-MEL it was 31.6 µM (inactive); in the experiment with RXF 631, > 100 µM (inactive); with SNB-78, 81.3 µM (inactive). The GI50 in the experiment on XF498 was 47.1 µM (inactive).
On to `CC(=O)NC(CCCCN)C(=O)NCc1ccccc1` (stereo unspecified), for which the GI50 with DLD-1, in the experiment with DMS-114, with DMS-273, in the experiment with KM-20L2, in the experiment on M19-MEL and in the experiment on XF498 was > 100 µM (inactive) each time.
On to `CC(=O)Nc1ccccc1-c1cnc2ccccc2n1`, for which the GI50 with DLD-1, with DMS-114, in the experiment with HOP-18, with KM-20L2, in the experiment on M19-MEL and in the experiment with SNB-78 was > 100 µM (inactive) in each case. In addition, the GI50 with XF498 was 29.6 µM (inactive).
`C=CCC(C)(C(=O)NCCC)C(=O)c1ccccc1O` (stereo unspecified): the GI50 with DLD-1, with DMS-114, in the experiment on DMS-273, in the experiment on HOP-18, in the experiment with KM-20L2 and with M19-MEL was > 100 µM (inactive) in each case. The GI50 with SNB-78 is > 100 µM (inactive).
In the case of `COc1cc(Br)c(CC2(C#N)c3ccccc3C3C(N2C(=O)c2ccccc2)C3(Cl)Cl)cc1OC` (stereo unspecified), the GI50 with DLD-1 is 19.3 µM (inactive); in the experiment with DMS-114, 16.3 µM (inactive); in the experiment with DMS-273, 2.69 µM (inactive); in the experiment on HOP-18, > 65.5 µM (inactive); in the experiment on KM-20L2, > 65.5 µM (inactive); in the experiment with SNB-78, > 65.5 µM (inactive). For the same compound, the GI50 in the experiment with XF498 is > 65.5 µM (inactive).
As to `Cc1nc(-c2nc(C)c(C(=O)NN(C)C)s2)sc1C(=O)NN(C)C`, the GI50 is 33.9 µM (inactive) with DLD-1; 16.2 µM (inactive) with DMS-273; > 100 µM (inactive) in the experiment with HOP-18; > 100 µM (inactive) in the experiment with KM-20L2; > 100 µM (inactive) with M19-MEL; > 100 µM (inactive) with SNB-78. In addition, the GI50 in the experiment with XF498 was > 100 µM (inactive).
For `O=c1/c(=C/c2ccccc2F)sc2nc3ccccc3n12`, the GI50 with DLD-1 is > 100 µM (inactive); with DMS-114, 67.3 µM (inactive); in the experiment on DMS-273 it was > 100 µM (inactive); in the experiment with KM-20L2, > 100 µM (inactive); in the experiment on M19-MEL, > 100 µM (inactive); in the experiment with RXF 631, > 100 µM (inactive). Further, the GI50 in the experiment on SNB-78 and in the experiment on XF498 was > 100 µM (inactive) in each case.
Turning to `C=CCNC(=S)N1CC(C)C(=O)Nc2cc(Cl)ccc21` (stereo unspecified), the GI50 in the experiment on DLD-1 is > 100 µM (inactive); with DMS-114 it was > 100 µM (inactive); with DMS-273, > 100 µM (inactive); in the experiment on HOP-18 it was 39.4 µM (inactive); in the experiment on KM-20L2 it was > 100 µM (inactive); in the experiment on M19-MEL, > 100 µM (inactive). Also, in the experiment on SNB-78, the GI50 is > 100 µM (inactive).
Consider `Cc1c(C(=O)CSc2nc3ccccc3[nH]2)c(=O)n(-c2ccccc2)n1C`, for which the GI50 with DLD-1, with DMS-273, in the experiment on KM-20L2, with M19-MEL, with SNB-78 and in the experiment with XF498 was > 100 µM (inactive) throughout.
On to `CC(=O)C(O)N1C(=O)C=CC1=O` (stereo unspecified), for which the GI50 with DLD-1 is 1.88 µM (inactive); in the experiment with DMS-114, 5.86 µM (inactive); in the experiment with DMS-273, 14.7 µM (inactive); in the experiment with HOP-18, 25.3 µM (inactive); in the experiment with M19-MEL, 5.89 µM (inactive); in the experiment with RXF 631, 18.7 µM (inactive). For the same compound, the GI50 in the experiment on SNB-78 was 16.9 µM (inactive); with XF498, 17.3 µM (inactive).
On to `c1ccc2[nH]c(-c3nc4ccccc4o3)nc2c1`, for which the GI50 with DLD-1, with DMS-114, with DMS-273, in the experiment on KM-20L2, with M19-MEL and in the experiment with SNB-78 was > 100 µM (inactive) each time. For the same compound, in the experiment with XF498, the GI50 was > 100 µM (inactive).
For `Cc1c(/C=N/NC(=O)c2ccccc2)c(=O)n(-c2ccccc2)n1C`, the GI50 with DLD-1, with DMS-114, with DMS-273, in the experiment on HOP-18, with KM-20L2 and with M19-MEL was > 100 µM (inactive) in each case. For the same compound, the GI50 with SNB-78 and in the experiment on XF498 was > 100 µM (inactive) each time.
Take `CCc1cc(Cc2ccc(C)c(NC(=O)C(=O)C3C(=O)NC(=O)NC3=O)c2CC)cc(C)c1NC(=O)C(=O)C1C(=O)NC(=O)NC1=O`: the GI50 in the experiment on DLD-1, with DMS-114, with DMS-273, in the experiment on KM-20L2, in the experiment with M19-MEL and in the experiment on RXF 631 was > 100 µM (inactive) each time. Also, in the experiment on SNB-78, the GI50 is > 100 µM (inactive).
On to `COc1ccc2nc(NC(=O)C(=O)C(C(=O)c3ccccc3-c3ccccc3)C3OC(=O)c4ccccc43)sc2c1` (stereo unspecified), for which the GI50 in the experiment on DLD-1 was 18.7 µM (inactive); in the experiment on DMS-114 it was 16.6 µM (inactive); in the experiment on KM-20L2, 25.1 µM (inactive); in the experiment with M19-MEL, 15.1 µM (inactive); with RXF 631 it was 26.6 µM (inactive); with SNB-78, 35 µM (inactive). The GI50 in the experiment with XF498 is 21.5 µM (inactive).
Consider `C=C1C(=O)O[C@@H]2C[C@@H](C)[C@@H]3C=CC(=O)[C@@]3(C)[C@@H](O)[C@H]12` [HELENALIN], for which the GI50 was 0.557 µM (active) in the experiment with DLD-1; 1.45 µM (inactive) in the experiment with DMS-114; 1.53 µM (inactive) in the experiment with DMS-273; 2.02 µM (inactive) in the experiment on HOP-18; 1.73 µM (inactive) in the experiment on KM-20L2; 2.82 µM (inactive) in the experiment on M19-MEL.
